From patent publication US12180187B2, “1-phenyl-5-azinylpyrazolyl-3-oxyalkyl acids and their use for controlling unwanted plant growth” (BAYER AKTIENGESELLSCHAFT, priority 2019, dated 2024)

How the values were obtained:
[1] = test system: AMARE; assay: Pre-emergence action against AMARE, 1280 g/ha; assay type: in vivo, Amaranthus retroflexus; details: scored visually after about 3 weeks vs untreated controls (100% = plants have died)
Procedure, shortened: (§1)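 Percent herbicidal effect, judged by eye relative to untreated pots around 3 weeks after soil-surface treatment. Application: formulated compound in water, 600 L/ha, 0.5% additive, on soil over sown seeds; greenhouse.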

[2] = test system: ABUTH; assay: Post-emergence action against ABUTH, 1.28 kg/ha; assay type: in vivo, Abutilon theophrasti; details: dosage 1280 g/ha, visual rating about 3 weeks after treatment vs untreated controls (100% = plants died)
Experimental: (§2) • a) Seeds of mono- and dicotyledonous weed plants are placed in plastic pots in sandy loam soil (twin sowing with one species each of mono- or dicotyledonous weed plants per pot), covered with soil and cultivated in a greenhouse under controlled growth conditions. 2 to 3 weeks after sowing, the test plants are treated at the one-leaf stage. The compounds of the invention, formulated in the form of wettable powders (WP) or as emulsion concentrates (EC), are applied to the green parts of the plants as aqueous suspension or emulsion with addition of 0.5% additive at a water application rate equivalent to 600 litres per hectare. After the test plants have been kept in the greenhouse under optimum growth conditions for about 3 weeks, the activity of the preparations is rated visually in comparison to untreated controls. For example, 100% activity=the plants have died, 0% activity=like control plants. As shown by the results, compounds of the general formula (I) of the invention, in post-emergence treatment, have very good herbicidal efficacy (90% to 100% herbicidal action) against harmful plants such as Abutilon theophrasti, Digitaria sanguinalis, Echinochloa crus-galli, Matricaria inodora, Poa annua, at an application rate of 1.28 kg of active substance per hectare.

[3] = test system: MATIN; assay: Post-emergence action against MATIN, 1.28 kg/ha; assay type: in vivo, Tripleurospermum inodorum (Matricaria inodora); details: dosage 1280 g/ha, visual rating about 3 weeks after treatment vs untreated controls (100% = plants died)
Procedure, shortened: (§3)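 Foliar application at the one-leaf stage: compound as WP or EC in water with 0.5% additive, sprayed at 600 L/ha. Plants are kept about 3 weeks in the greenhouse, then % herbicidal action is estimated visually (100% = death).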

[4] = test system: ECHCG; assay: Post-emergence action against ECHCG, 1.28 kg/ha; assay type: in vivo, Echinochloa crus-galli; details: dosage 1280 g/ha, visual rating about 3 weeks after treatment vs untreated controls
Experimental: as §2

[5] = test system: LOLRI; assay: Post-emergence action against LOLRI, 1.28 kg/ha; assay type: in vivo, Lolium rigidum; details: dosage 1280 g/ha, visual rating about 3 weeks after treatment vs untreated controls
Experimental: as §2

[6] = test system: ALOMY; assay: Post-emergence action against ALOMY, 1.28 kg/ha; assay type: in vivo, Alopecurus myosuroides; details: dosage 1280 g/ha, visual rating about 3 weeks after treatment vs untreated controls
Procedure, shortened: as §3

[7] = test system: ECHCG; assay: Pre-emergence action against ECHCG, 1280 g/ha; assay type: in vivo, Echinochloa crus-galli; details: visual scoring after about 3 weeks vs untreated controls, 100% = plants have died, 0% = like control plants
Procedure, shortened: as §1

[8] = test system: DIGSA; assay: Pre-emergence action against DIGSA, 1280 g/ha; assay type: in vivo, Digitaria sanguinalis; details: visual scoring after about 3 weeks vs untreated controls, 100% = plants have died, 0% = like control plants
Procedure, shortened: as §1

[9] = test system: DIGSA; assay: Post-emergence action against DIGSA, 1.28 kg/ha; assay type: in vivo, Digitaria sanguinalis; details: dosage 1280 g/ha, visual rating about 3 weeks after treatment vs untreated controls
Procedure, shortened: as §3

[10] = test system: AMARE; assay: Post-emergence action against AMARE, 1.28 kg/ha; assay type: in vivo, Amaranthus retroflexus; details: dosage 1280 g/ha, visual rating about 3 weeks after treatment vs untreated controls (100% = plants died)
Procedure, shortened: as §3

[11] = test system: STEME; assay: Pre-emergence action against STEME, 1280 g/ha; assay type: in vivo, Stellaria media; details: scored visually after about 3 weeks vs untreated controls (100% = plants have died)
Procedure, shortened: as §1

[12] = test system: POAAN; assay: Pre-emergence action against POAAN, 1280 g/ha; assay type: in vivo, Poa annua; details: visual scoring after about 3 weeks vs untreated controls, 100% = plants have died, 0% = like control plants
Procedure, shortened: as §1

[13] = test system: POAAN; assay: Post-emergence action against POAAN, 1.28 kg/ha; assay type: in vivo, Poa annua; details: dosage 1280 g/ha, visual rating about 3 weeks after treatment vs untreated controls
Procedure, shortened: as §3

[14] = test system: MATIN; assay: Pre-emergence action against MATIN, 1280 g/ha; assay type: in vivo, Tripleurospermum inodorum (Matricaria inodora); details: scored visually after about 3 weeks vs untreated controls (100% = plants have died)
Procedure, shortened: as §1

[15] = test system: SETVI; assay: Pre-emergence action against SETVI, 1280 g/ha; assay type: in vivo, Setaria viridis; details: visual scoring after about 3 weeks vs untreated controls, 100% = plants have died, 0% = like control plants
Procedure, shortened: as §1

[16] = test system: STEME; assay: Post-emergence action against STEME, 1.28 kg/ha; assay type: in vivo, Stellaria media; details: dosage 1280 g/ha, visual rating about 3 weeks after treatment vs untreated controls (100% = plants died)
Procedure, shortened: as §3

[17] = test system: VERPE; assay: Post-emergence action against VERPE, 1.28 kg/ha; assay type: in vivo, Veronica persica; details: dosage 1280 g/ha, visual rating about 3 weeks after treatment vs untreated controls (100% = plants died)
Procedure, shortened: as §3

[18] = test system: LOLRI; assay: Pre-emergence action against LOLRI, 1280 g/ha; assay type: in vivo, Lolium rigidum; details: visual scoring after about 3 weeks vs untreated controls, 100% = plants have died, 0% = like control plants
Procedure, shortened: as §1

[19] = test system: VERPE; assay: Pre-emergence action against VERPE, 1280 g/ha; assay type: in vivo, Veronica persica; details: scored visually after about 3 weeks vs untreated controls (100% = plants have died)
Procedure, shortened: as §1

[20] = test system: SETVI; assay: Post-emergence action against SETVI, 1.28 kg/ha; assay type: in vivo, Setaria viridis; details: dosage 1280 g/ha, visual rating about 3 weeks after treatment vs untreated controls
Experimental: as §2

[21] = test system: ALOMY; assay: Pre-emergence action against ALOMY, 1280 g/ha; assay type: in vivo, Alopecurus myosuroides; details: visual scoring after about 3 weeks vs untreated controls, 100% = plants have died, 0% = like control plants
Procedure, shortened: as §1

SMILES: O=C(COc1nn(-c2ccccc2F)c(-c2ccc(F)nc2)c1C(F)(F)F)NS(=O)(=O)CC(F)(F)F [Example X-006]
- Pre-emergence action against AMARE [1]: 100%
- Post-emergence action against ABUTH [2]: 90%
- Post-emergence action against MATIN [3]: 100%
- Post-emergence action against ECHCG [4]: 100%
- Post-emergence action against LOLRI [5]: 90%
- Post-emergence action against ALOMY [6]: 100%
- Pre-emergence action against ECHCG [7]: 100%
- Pre-emergence action against DIGSA [8]: 100%
- Post-emergence action against DIGSA [9]: 90%
- Post-emergence action against AMARE [10]: 100%
- Pre-emergence action against STEME [11]: 100%
- Pre-emergence action against POAAN [12]: 100%
- Post-emergence action against POAAN [13]: 100%
- Pre-emergence action against MATIN [14]: 100%
- Pre-emergence action against SETVI [15]: 100%
- Post-emergence action against STEME [16]: 100%
- Post-emergence action against VERPE [17]: 90%
- Pre-emergence action against LOLRI [18]: 100%
- Pre-emergence action against VERPE [19]: 100%

SMILES: O=C(COc1nn(-c2ccccc2F)c(-c2ccc(F)nc2)c1Br)NO [Example X-023]
- Pre-emergence action against AMARE [1]: 100%
- Post-emergence action against ABUTH [2]: 90%
- Post-emergence action against MATIN [3]: 100%
- Post-emergence action against SETVI [20]: 90%
- Post-emergence action against ECHCG [4]: 100%
- Post-emergence action against LOLRI [5]: 100%
- Post-emergence action against ALOMY [6]: 100%
- Pre-emergence action against ECHCG [7]: 100%
- Pre-emergence action against DIGSA [8]: 100%
- Post-emergence action against DIGSA [9]: 100%
- Post-emergence action against AMARE [10]: 100%
- Pre-emergence action against STEME [11]: 100%
- Pre-emergence action against POAAN [12]: 100%
- Post-emergence action against POAAN [13]: 100%
- Pre-emergence action against ALOMY [21]: 90%
- Pre-emergence action against MATIN [14]: 100%
- Pre-emergence action against SETVI [15]: 100%
- Post-emergence action against STEME [16]: 100%
- Post-emergence action against VERPE [17]: 100%
- Pre-emergence action against LOLRI [18]: 100%
- Pre-emergence action against VERPE [19]: 100%

SMILES: O=C(O)CNC(=O)COc1nn(-c2ccccc2F)c(-c2ccc(F)nc2)c1C(F)(F)F [Example X-026]
- Pre-emergence action against AMARE [1]: 100%
- Post-emergence action against ABUTH [2]: 90%
- Post-emergence action against MATIN [3]: 100%
- Post-emergence action against SETVI [20]: 100%
- Post-emergence action against LOLRI [5]: 90%
- Post-emergence action against ALOMY [6]: 100%
- Pre-emergence action against ECHCG [7]: 100%
- Pre-emergence action against DIGSA [8]: 100%
- Post-emergence action against DIGSA [9]: 100%
- Post-emergence action against AMARE [10]: 90%
- Pre-emergence action against STEME [11]: 100%
- Pre-emergence action against POAAN [12]: 100%
- Post-emergence action against POAAN [13]: 100%
- Pre-emergence action against ALOMY [21]: 100%
- Pre-emergence action against MATIN [14]: 100%
- Pre-emergence action against SETVI [15]: 100%
- Post-emergence action against STEME [16]: 100%
- Post-emergence action against VERPE [17]: 90%
- Pre-emergence action against LOLRI [18]: 100%
- Pre-emergence action against VERPE [19]: 100%

SMILES: O=C(COc1nn(-c2ccccc2F)c(-c2cncnc2)c1Br)OCc1ccccc1 [VI-002]
- Pre-emergence action against AMARE [1]: 100%
- Post-emergence action against ABUTH [2]: 90%
- Post-emergence action against MATIN [3]: 100%
- Post-emergence action against SETVI [20]: 90%
- Post-emergence action against ECHCG [4]: 100%
- Post-emergence action against LOLRI [5]: 100%
- Pre-emergence action against ECHCG [7]: 100%
- Post-emergence action against AMARE [10]: 90%
- Pre-emergence action against STEME [11]: 100%
- Pre-emergence action against POAAN [12]: 100%
- Post-emergence action against POAAN [13]: 100%
- Pre-emergence action against MATIN [14]: 90%
- Pre-emergence action against SETVI [15]: 100%
- Post-emergence action against STEME [16]: 90%
- Post-emergence action against VERPE [17]: 90%
- Pre-emergence action against LOLRI [18]: 100%
- Pre-emergence action against VERPE [19]: 90%
